# Test results published in patent publication US9000125B2, “Approach to treat intraocular hypertension” (priority 2006, dated 2015).
# No end group written: not given here.
# Test system: intraocular pressure (IOP) of the rabbit eye
# Experiment: IOP (TonoPen) in anaesthetized normal NZW rabbits after deposition/injection beneath the Tenon's capsule
# Conditions: Example 9; 50 or 100 μg below the Tenon's capsule
substance,measurement,value
CHSKTR [CHSKTR],local or systemic side effects,without inducing any local or systemic side effects
